This is an account of results in patent US20260125366A1, “METHODS FOR TREATING CANCER” (SCORPION THERAPEUTICS, INC., priority 2022, published 2026).

In the assay the target is PI3Kα H1047R (Homo sapiens, UniProt P42336, H1047R). Nature of the assay: ADP-Glo assay. The assay is classed as biochemical. Conditions: 2 nM H1047R enzyme; 1 hour incubation with compound at room temperature; ATPase reaction 100 min. On the procedure: Compounds were plated using acoustic liquid dispensing on the Echo 655T by transferring 50 nL/well compound DMSO solution from an Echo source plate to a 384-well assay plate to generate a 10-point dose response curve with a top final concentration of […], 1:3 serial dilution down; the same volume of DMSO was dispensed to wells designated as positive and negative controls. On the day of the assay, a 2X enzyme solution in the assay buffer (50 mM Tris, 150 mM NaCl, 0.01% Brij35, 15 mM MgCl2, 0.05% Tween-20, and 1 mM DTT) was prepared. The enzyme concentrations used were: 20 nM for wild-type, 2 nM for H1047R and H1047L, and 10 nM for H1047Y proteins. 2.5 µL/well of 2X enzyme solution was dispensed into the assay plates and the enzyme was incubated with the test compound at room temperature for 1 hour; the same volume of assay buffer without enzyme was dispensed to wells designated as positive controls. At the end of the incubation, 2.5 µL/well of 2X ATP solution in assay buffer was dispensed to initiate the ATPase reaction and incubated at room temperature for 100 min. Reactions were terminated and ADP production measured using the ADP-Glo kit following instructions from the manufacturer.
The IC50(nM) ranges are as follows: A denotes <200 nM; B denotes 200 nM≤IC50<500 nM; C denotes ≥500 nM. ND denotes value not determined with that assay for the specified compound.

Sequence of PI3Kα H1047R (P42336 whole entry H1047R): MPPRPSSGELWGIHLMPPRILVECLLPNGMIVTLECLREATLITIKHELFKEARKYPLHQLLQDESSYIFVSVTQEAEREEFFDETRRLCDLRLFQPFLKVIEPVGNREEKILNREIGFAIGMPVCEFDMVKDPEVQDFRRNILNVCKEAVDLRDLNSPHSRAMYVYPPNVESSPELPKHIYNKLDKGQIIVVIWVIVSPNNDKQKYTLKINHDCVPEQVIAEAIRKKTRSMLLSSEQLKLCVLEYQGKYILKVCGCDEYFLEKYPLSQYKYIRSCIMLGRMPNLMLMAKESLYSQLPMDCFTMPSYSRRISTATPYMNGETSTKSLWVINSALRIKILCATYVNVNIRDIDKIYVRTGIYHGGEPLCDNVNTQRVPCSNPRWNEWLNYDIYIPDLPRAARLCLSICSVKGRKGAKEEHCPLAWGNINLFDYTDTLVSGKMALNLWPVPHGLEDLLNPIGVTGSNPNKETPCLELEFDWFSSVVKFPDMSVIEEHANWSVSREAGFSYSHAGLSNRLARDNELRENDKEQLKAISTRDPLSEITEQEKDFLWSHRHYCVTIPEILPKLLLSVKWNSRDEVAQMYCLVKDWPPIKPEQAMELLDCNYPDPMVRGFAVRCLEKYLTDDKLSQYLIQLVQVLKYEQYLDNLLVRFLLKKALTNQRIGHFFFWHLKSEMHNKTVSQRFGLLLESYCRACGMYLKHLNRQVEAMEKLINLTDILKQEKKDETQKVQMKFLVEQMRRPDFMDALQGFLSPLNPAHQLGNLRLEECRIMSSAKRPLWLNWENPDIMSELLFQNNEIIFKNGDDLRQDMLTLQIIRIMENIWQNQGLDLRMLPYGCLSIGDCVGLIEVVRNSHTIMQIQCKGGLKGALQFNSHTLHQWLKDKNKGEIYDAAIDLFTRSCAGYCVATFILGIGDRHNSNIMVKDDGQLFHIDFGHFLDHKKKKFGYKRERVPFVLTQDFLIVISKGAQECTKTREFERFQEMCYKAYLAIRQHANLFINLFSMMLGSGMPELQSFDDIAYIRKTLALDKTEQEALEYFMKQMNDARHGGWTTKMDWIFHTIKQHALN
Sequence of PI3Kα H1047R (P27986 whole entry partner): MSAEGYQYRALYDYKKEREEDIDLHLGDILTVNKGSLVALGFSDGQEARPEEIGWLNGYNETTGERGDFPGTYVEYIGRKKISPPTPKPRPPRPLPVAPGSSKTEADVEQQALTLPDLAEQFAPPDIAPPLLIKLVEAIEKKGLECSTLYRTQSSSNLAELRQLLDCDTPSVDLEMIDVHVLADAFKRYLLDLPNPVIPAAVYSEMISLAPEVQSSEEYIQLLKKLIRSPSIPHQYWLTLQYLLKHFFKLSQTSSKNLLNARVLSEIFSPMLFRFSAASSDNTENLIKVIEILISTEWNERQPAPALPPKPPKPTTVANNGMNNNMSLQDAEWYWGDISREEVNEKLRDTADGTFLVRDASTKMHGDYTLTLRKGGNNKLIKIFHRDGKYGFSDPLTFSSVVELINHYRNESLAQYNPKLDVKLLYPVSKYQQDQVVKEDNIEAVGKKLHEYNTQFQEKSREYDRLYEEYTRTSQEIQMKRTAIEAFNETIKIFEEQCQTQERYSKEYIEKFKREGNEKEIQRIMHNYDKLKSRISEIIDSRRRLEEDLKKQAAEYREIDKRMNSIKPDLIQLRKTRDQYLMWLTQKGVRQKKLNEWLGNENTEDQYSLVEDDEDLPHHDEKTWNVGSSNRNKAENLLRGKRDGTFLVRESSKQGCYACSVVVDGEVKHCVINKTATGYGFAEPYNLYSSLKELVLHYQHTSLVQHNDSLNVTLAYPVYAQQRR

Take `Cc1c([C@@H](NC(=O)Nc2cnc(N)nc2)C(F)(F)F)nn2ccccc12` (racemic) [Compound 5]: the IC50 was ≥ 500 nM. The figure for `Cn1c([C@@H](NC(=O)Nc2cnc(N)nc2)C(F)(F)F)nc2c(F)cc(F)cc21` (racemic) [Compound 7] is < 200 nM; for `Cn1c([C@@H](NC(=O)Nc2cnc(N)nc2)C(F)(F)F)cc2c(F)cc(F)cc21` (racemic) [Compound 9] it is < 200 nM; for `Cc1c([C@@H](NC(=O)Nc2cnc(N)nc2)C(F)(F)F)nc2ccc(F)cn12` (racemic) [Compound 11] it is ≥ 500 nM.

Regarding `Cn1c(C(NC(=O)Nc2cnc(N)nc2)C(F)(F)F)cc2ccc(F)cc21` (stereo not shown) [Compound 1, 1-(2-aminopyrimidin-5-yl)-3-[2,2,2-trifluoro-1-(6-fluoro-1-methylindol-2-yl)ethyl]urea], the IC50 was < 200 nM.

In the case of `CC(C)C(NC(=O)Nc1cnc(N)nc1)c1cc2ccc(F)cc2n1C` (stereo not shown) [Compound 2, 1-(2-aminopyrimidin-5-yl)-3-[1-(6-fluoro-1-methylindol-2-yl)-2-methylpropyl]urea], the IC50 is < 200 nM.

Consider `Cc1c([C@@H](NC(=O)Nc2cnc(N)nc2)C(F)(F)F)n(C)c2c(F)cc(F)cc12` [Compound 3, 1-(2-aminopyrimidin-5-yl)-3-[(1R)-1-(5,7-difluoro-1,3-dimethylindol-2-yl)-2,2,2-trifluoroethyl]ureas], for which the IC50 fell in the range of 200 to 500 nM.
